Laboratory results reported in ChEMBL document CHEMBL1201862, “PubChem BioAssay data set” (2004).
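Following 48 hours of exposure in 96-well plates, responses at five concentrations were used to interpolate endpoints linearly. Here, GI50 denotes the concentration required for 50% inhibition of growth.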 Calls of active or inactive are those of the source. No stated cut-off is given here; in the data, active = GI50 up to about 1.1 µM and inactive = higher.

How the values were obtained:
Test in all cases: growth of human tumour cells (NCI), 48 h
HCT-116 = system: HCT-116
SF-539 = system: SF-539
KM12 = system: KM12
SNB-19 = system: SNB-19
Hs-578T = system: Hs-578T
NCI-H23 = system: NCI-H23
A498 = system: A498
SF-295 = system: SF-295
COLO 205 = system: COLO 205
MDA-MB-231 = system: MDA-MB-231
MDA-N = system: MDA-N
OVCAR-3 = system: OVCAR-3
OVCAR-4 = system: OVCAR-4
HOP-62 = system: HOP-62
UO-31 = system: UO-31
NCI-H226 = system: NCI-H226
SR = system: SR
CAKI-1 = system: CAKI-1
K562 = system: K562
NCI-H522 = system: NCI-H522
MOLT-4 = system: MOLT-4
RXF 393 = system: RXF 393
SN12C = system: SN12C
PC-3 = system: PC-3
MDA-MB-435 = system: MDA-MB-435
U-251 = system: U-251
DU-145 = system: DU-145
ACHN = system: ACHN
IGROV-1 = system: IGROV-1
HT-29 = system: HT-29
SNB-75 = system: SNB-75
HCT-15 = system: HCT-15
UACC-257 = system: UACC-257
CCRF-CEM = system: CCRF-CEM
TK-10 = system: TK-10
EKVX = system: EKVX
BT-549 = system: BT-549
SK-OV-3 = system: SK-OV-3
Malme-3M = system: Malme-3M
T47D = system: T47D
SK-MEL-2 = system: SK-MEL-2
M14 = system: M14
MCF7 = system: MCF7
UACC-62 = system: UACC-62
OVCAR-8 = system: OVCAR-8
A549 = system: A549
HCC 2998 = system: HCC 2998
786-0 = system: 786-0
SK-MEL-5 = system: SK-MEL-5
NCI-H460 = system: NCI-H460
NCI/ADR-RES = system: NCI/ADR-RES
OVCAR-5 = system: OVCAR-5
SW-620 = system: SW-620
RPMI-8226 = system: RPMI-8226
SF-268 = system: SF-268
SK-MEL-28 = system: SK-MEL-28
LOX IMVI = system: LOX IMVI
HOP-92 = system: HOP-92

`Cn1nc2ccc([N+](=O)[O-])cc2[n+]1[O-]` was tested, and the GI50 (HCT-116) was > 100 µM (inactive), the GI50 (SF-539) was > 100 µM (inactive) and the GI50 (KM12) was > 100 µM (inactive). The GI50 (SNB-19) was > 100 µM (inactive), the GI50 (Hs-578T) was > 100 µM (inactive) and the GI50 (NCI-H23) was > 100 µM (inactive). The GI50 (A498) was 87.9 µM (inactive), the GI50 (SF-295) was > 100 µM (inactive) and the GI50 (COLO 205) was > 100 µM (inactive). For the same compound, the GI50 (MDA-MB-231) was > 100 µM (inactive), the GI50 (MDA-N) was 90.4 µM (inactive) and the GI50 (OVCAR-3) was > 100 µM (inactive). The GI50 (OVCAR-4) was > 100 µM (inactive), the GI50 (HOP-62) was > 100 µM (inactive) and the GI50 (UO-31) was > 100 µM (inactive). The GI50 (NCI-H226) was > 100 µM (inactive), the GI50 (SR) was > 100 µM (inactive) and the GI50 (CAKI-1) was > 100 µM (inactive). The GI50 (K562) was > 100 µM (inactive), the GI50 (NCI-H522) was > 100 µM (inactive) and the GI50 (MOLT-4) was > 100 µM (inactive). For the same compound, the GI50 (RXF 393) was > 100 µM (inactive), the GI50 (SN12C) was 22.4 µM (inactive) and the GI50 (PC-3) was > 100 µM (inactive). For the same compound, the GI50 (MDA-MB-435) was > 100 µM (inactive), the GI50 (U-251) was > 100 µM (inactive) and the GI50 (DU-145) was > 100 µM (inactive). The GI50 (ACHN) was > 100 µM (inactive), the GI50 (IGROV-1) was > 100 µM (inactive) and the GI50 (HT-29) was > 100 µM (inactive). For the same compound, the GI50 (SNB-75) was > 100 µM (inactive), the GI50 (HCT-15) was > 100 µM and the GI50 (UACC-257) was > 100 µM (inactive). The GI50 (CCRF-CEM) was > 100 µM (inactive), the GI50 (TK-10) was > 100 µM (inactive) and the GI50 (EKVX) was > 100 µM (inactive). The GI50 (BT-549) was > 100 µM (inactive), the GI50 (SK-OV-3) was > 100 µM (inactive) and the GI50 (Malme-3M) was > 100 µM (inactive). The GI50 (T47D) was > 100 µM (inactive), the GI50 (SK-MEL-2) was > 100 µM (inactive) and the GI50 (M14) was > 100 µM (inactive). For the same compound, the GI50 (MCF7) was > 100 µM (inactive), the GI50 (UACC-62) was > 100 µM (inactive) and the GI50 (OVCAR-8) was > 100 µM (inactive). The GI50 (A549) was > 100 µM (inactive), the GI50 (HCC 2998) was > 100 µM (inactive) and the GI50 (786-0) was > 100 µM (inactive). For the same compound, the GI50 (SK-MEL-5) was > 100 µM (inactive), the GI50 (NCI-H460) was > 100 µM (inactive) and the GI50 (NCI/ADR-RES) was > 100 µM (inactive). For the same compound, the GI50 (OVCAR-5) was > 100 µM (inactive).
For `C=CCSC1=N/C(=C\c2cccs2)C(=O)N1CC=C`, the GI50 (HCT-116) was 32.7 µM (inactive), the GI50 (SW-620) was 82.2 µM (inactive) and the GI50 (SF-539) was > 100 µM (inactive). For the same compound, the GI50 (KM12) was 40 µM (inactive), the GI50 (SNB-19) was > 100 µM (inactive) and the GI50 (Hs-578T) was > 100 µM (inactive). The GI50 (NCI-H23) was 94.8 µM (inactive), the GI50 (A498) was 26.4 µM (inactive) and the GI50 (SF-295) was 81.5 µM (inactive). The GI50 (COLO 205) was 56.2 µM (inactive), the GI50 (MDA-MB-231) was 83.4 µM (inactive) and the GI50 (MDA-N) was 42.9 µM (inactive). For the same compound, the GI50 (OVCAR-3) was > 100 µM (inactive), the GI50 (OVCAR-4) was 38.6 µM (inactive) and the GI50 (HOP-62) was > 100 µM (inactive). The GI50 (RPMI-8226) was 21.9 µM (inactive), the GI50 (UO-31) was 37.4 µM (inactive) and the GI50 (NCI-H226) was 44.2 µM (inactive). For the same compound, the GI50 (SR) was 32.5 µM (inactive), the GI50 (CAKI-1) was > 100 µM (inactive) and the GI50 (K562) was 29.4 µM (inactive). The GI50 (SF-268) was > 100 µM (inactive), the GI50 (NCI-H522) was 49.4 µM (inactive) and the GI50 (MOLT-4) was 18.7 µM (inactive). For the same compound, the GI50 (RXF 393) was 16.7 µM (inactive), the GI50 (SN12C) was 53.1 µM (inactive) and the GI50 (PC-3) was 33.7 µM (inactive). For the same compound, the GI50 (MDA-MB-435) was 60.3 µM (inactive), the GI50 (U-251) was 61.5 µM (inactive) and the GI50 (DU-145) was 79.3 µM (inactive). The GI50 (ACHN) was 54.6 µM (inactive), the GI50 (IGROV-1) was > 100 µM (inactive) and the GI50 (HT-29) was 32.8 µM (inactive). The GI50 (SK-MEL-28) was > 100 µM (inactive), the GI50 (HCT-15) was 66.1 µM and the GI50 (UACC-257) was 49.8 µM (inactive). For the same compound, the GI50 (TK-10) was > 100 µM (inactive), the GI50 (EKVX) was 19.2 µM (inactive) and the GI50 (BT-549) was 44.4 µM (inactive). The GI50 (LOX IMVI) was 46.1 µM (inactive), the GI50 (SK-OV-3) was > 100 µM (inactive) and the GI50 (Malme-3M) was > 100 µM (inactive). For the same compound, the GI50 (T47D) was 15.4 µM (inactive), the GI50 (SK-MEL-2) was > 100 µM (inactive) and the GI50 (M14) was 54.5 µM (inactive). The GI50 (MCF7) was 27.3 µM (inactive), the GI50 (UACC-62) was 63.2 µM (inactive) and the GI50 (OVCAR-8) was 44.6 µM (inactive). The GI50 (A549) was 33.7 µM (inactive), the GI50 (HCC 2998) was 58.9 µM (inactive) and the GI50 (786-0) was 45.4 µM (inactive). For the same compound, the GI50 (SK-MEL-5) was 32.3 µM (inactive), the GI50 (NCI-H460) was 61.9 µM (inactive) and the GI50 (NCI/ADR-RES) was 75.2 µM (inactive). For the same compound, the GI50 (OVCAR-5) was > 100 µM (inactive) and the GI50 (HOP-92) was 12.9 µM (inactive).
In the case of `O=C(Cc1ccc2ccccc2c1)NCc1ccc(C(=O)NCCc2ccccc2)cc1`, the GI50 (HCT-116) was > 100 µM (inactive), the GI50 (SW-620) was > 100 µM (inactive) and the GI50 (KM12) was > 100 µM (inactive). For the same compound, the GI50 (SNB-19) was > 100 µM (inactive), the GI50 (Hs-578T) was > 100 µM (inactive) and the GI50 (NCI-H23) was > 100 µM (inactive). For the same compound, the GI50 (A498) was > 100 µM (inactive), the GI50 (SF-295) was > 100 µM (inactive) and the GI50 (COLO 205) was > 100 µM (inactive). The GI50 (MDA-MB-231) was > 100 µM (inactive), the GI50 (MDA-N) was > 100 µM (inactive) and the GI50 (OVCAR-3) was > 100 µM (inactive). The GI50 (OVCAR-4) was > 100 µM (inactive), the GI50 (HOP-62) was > 100 µM (inactive) and the GI50 (RPMI-8226) was > 100 µM (inactive). The GI50 (UO-31) was > 100 µM (inactive), the GI50 (NCI-H226) was > 100 µM (inactive) and the GI50 (SR) was > 100 µM (inactive). The GI50 (CAKI-1) was > 100 µM (inactive), the GI50 (K562) was > 100 µM (inactive) and the GI50 (SF-268) was > 100 µM (inactive). For the same compound, the GI50 (NCI-H522) was > 100 µM (inactive), the GI50 (RXF 393) was > 100 µM (inactive) and the GI50 (SN12C) was > 100 µM (inactive). For the same compound, the GI50 (PC-3) was > 100 µM (inactive), the GI50 (MDA-MB-435) was > 100 µM (inactive) and the GI50 (U-251) was > 100 µM (inactive). For the same compound, the GI50 (DU-145) was > 100 µM (inactive), the GI50 (ACHN) was > 100 µM (inactive) and the GI50 (IGROV-1) was > 100 µM (inactive). The GI50 (HT-29) was 94.4 µM (inactive), the GI50 (SNB-75) was > 100 µM (inactive) and the GI50 (SK-MEL-28) was > 100 µM (inactive). For the same compound, the GI50 (HCT-15) was > 100 µM, the GI50 (UACC-257) was > 100 µM (inactive) and the GI50 (CCRF-CEM) was 20.3 µM (inactive). The GI50 (TK-10) was > 100 µM (inactive), the GI50 (EKVX) was > 100 µM (inactive) and the GI50 (BT-549) was > 100 µM (inactive). The GI50 (LOX IMVI) was > 100 µM (inactive), the GI50 (SK-OV-3) was > 100 µM (inactive) and the GI50 (Malme-3M) was > 100 µM (inactive). For the same compound, the GI50 (T47D) was > 100 µM (inactive), the GI50 (SK-MEL-2) was > 100 µM (inactive) and the GI50 (M14) was > 100 µM (inactive). The GI50 (MCF7) was > 100 µM (inactive), the GI50 (UACC-62) was > 100 µM (inactive) and the GI50 (OVCAR-8) was > 100 µM (inactive). For the same compound, the GI50 (A549) was > 100 µM (inactive), the GI50 (HCC 2998) was > 100 µM (inactive) and the GI50 (786-0) was > 100 µM (inactive). For the same compound, the GI50 (SK-MEL-5) was > 100 µM (inactive), the GI50 (NCI-H460) was > 100 µM (inactive) and the GI50 (NCI/ADR-RES) was > 100 µM (inactive). For the same compound, the GI50 (OVCAR-5) was > 100 µM (inactive) and the GI50 (HOP-92) was > 100 µM (inactive).
